Consider 19 molecules from the supplement of paper PMC11368000.

Molecules are shown by their SMILES.

For the first assay, the system named is 1531 (donor line of iPSC-derived cardiomyocytes). Kind of assay: POD (EC05) for decrease in beat frequency (negative chronotrope) vs vehicle; higher = less potent (higher point of departure). The note with it: exposure time: 90 min. The procedure: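 Human iPSC-derived cardiomyocytes from 16 donors were exposed for 90 min at 37 °C to each PFAS at 0.1, 1, 10 and 100 µM in 0.5% DMSO, 384-well plates. Kinetic Ca2+ flux (FLIPR) and Hoechst nuclei counts were normalised to vehicle wells and fitted with a hierarchical Bayesian Hill model to give donor-specific PODs: EC05 for beat-rate increase or decrease and for decay-to-rise ratio increase (QT proxy), EC95 for peak-frequency loss (asystole), EC10 for total cell number loss. 0.03 µM is the lower bound.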
As for `OCCC(F)(F)C(F)(F)C(F)(F)C(F)(F)C(F)(F)C(F)(F)F` [6:2 Fluorotelomer alcohol], the POD vs vehicle is over 100 µM.
In turn, `O=S(=O)(O)CCC(F)(F)C(F)(F)C(F)(F)C(F)(F)C(F)(F)C(F)(F)F` [6:2 Fluorotelomer sulfonic acid] had a POD vs vehicle of 25.1 µM.
`OCCC(F)(F)C(F)(F)C(F)(F)C(F)(F)C(F)(F)C(F)(F)C(F)(F)C(F)(F)F` [8:2 Fluorotelomer alcohol] displayed a POD vs vehicle of over 100 µM.
Take `O=S(=O)(O)CCC(F)(F)C(F)(F)C(F)(F)C(F)(F)C(F)(F)C(F)(F)C(F)(F)C(F)(F)F` [8:2 Fluorotelomer sulfonic acid]: the POD vs vehicle turned out to be 1.06 µM.
Still for that read-out and setting: with `O=C(O)C(F)(F)C(F)(F)C(F)(F)C(F)(F)C(F)(F)C(F)(F)C(F)(F)C(F)(F)Cl` [9-Chloro-perfluorononanoic_acid] the figure was over 100 µM.
`O=P(O)(O)CCC(F)(F)C(F)(F)C(F)(F)C(F)(F)C(F)(F)C(F)(F)C(F)(F)C(F)(F)F` [((Perfluorooctyl)ethyl)phosphonic_acid] showed a POD vs vehicle of over 100 µM.
Regarding `O=C([O-])C(F)(F)C(F)(F)C(F)(F)C(F)(F)C(F)(F)C(F)(F)C(F)(F)F.[NH4+]` [Ammonium_perfluorooctanoate], the POD vs vehicle is 18.9 µM.
`OCC(F)(F)C(F)(F)C(F)(F)C(F)(F)C(F)(F)C(F)F` [Dodecafluoroheptanol] came in with a POD vs vehicle of 15.7 µM.
In the case of `OCC(F)(F)OC(F)(F)C(F)(F)OC(F)(F)C(F)(F)OC(F)(F)F` [Fluorinated_triethylene_glycol_monomethyl_ether], the POD vs vehicle was over 100 µM.
Molecule `OCC(F)(F)C(F)(F)C(F)(F)F` [Heptafluorobutanol] displayed a POD vs vehicle of over 100 µM.
Same read-out and setting: the same measure for `OCC(F)(F)C(F)(F)C(F)(F)CO` [Hexafluoroamylene_glycol]: over 100 µM; for `COC(=O)C(F)(F)C(F)(F)OC(F)(C(F)(F)F)C(F)(F)OC(F)=C(F)F` (configuration not stated) [Methyl_perfluoro(3-(1-ethenyloxypropan-2-yloxy)propanoate)]: over 100 µM; for `NC(=O)C(F)(F)C(F)(F)C(F)(F)C(F)(F)F` [Nonafluoropentanamide]: over 100 µM.
Molecule `NC(=O)C(F)(F)C(F)(F)C(F)(F)C(F)(F)C(N)=O` [Octafluoroadipamide] came in with a POD vs vehicle of over 100 µM.
In turn, `O=C(O)C(F)(F)C(F)(F)C(F)(F)C(F)(F)C(=O)O` [Octafluoroadipic_acid] yielded a POD vs vehicle of over 100 µM.
Take `O=C(O)C(F)(F)C(F)(F)C(F)(F)OC(F)(F)F` [Perfluoro(4-methoxybutanoic)_acid]: the POD vs vehicle is over 100 µM.
Molecule `O=C(O)C(F)(F)OC(F)(F)C(F)(F)OC(F)(F)C(F)(F)OC(F)(F)C(F)(F)C(F)(F)C(F)(F)F` [Perfluoro-3,6,9-trioxatridecanoic_acid] registered a POD vs vehicle of 3.38 µM.
In turn, `O=C(O)C(F)(F)OC(F)(F)C(F)(F)OC(F)(F)F` [Perfluoro-3,6-dioxaheptanoic_acid] came in with a POD vs vehicle of over 100 µM.
`O=C(O)C(F)(F)OC(F)(F)C(F)(F)OC(F)(F)C(=O)O` [Perfluoro-3,6-dioxaoctane-1,8-dioic_acid]: the POD vs vehicle was over 100 µM.

The next assay relates to 30145 (donor line of iPSC-derived cardiomyocytes). Kind of assay: POD (EC05) for increase in Ca2+ transient decay-to-rise ratio (QT prolongation) vs vehicle; higher = less potent (higher point of departure). The conditions noted are these: exposure time: 90 min. In short, it runs like this: (§1)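 For each of 16 donors, iPSC-derived human cardiomyocytes were cultured 14 days in gelatin-coated 384-well plates and given a fluorescent Ca2+ dye for 2 h. Exposure lasted 90 min at 37 °C at 0.1, 1, 10 and 100 µM final, with 0.5% DMSO, and a FLIPR Tetra captured Ca2+ flux at 8 frames/s over 100 s both before and afterwards. Points of departure per donor were estimated by hierarchical Bayesian Hill fits to vehicle-normalised beat frequency, decay-to-rise ratio or peak frequency, using thresholds of 5% change, or 95% loss for peak frequency.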
As for `OCCC(F)(F)C(F)(F)C(F)(F)C(F)(F)C(F)(F)C(F)(F)F` [6:2 Fluorotelomer alcohol], the POD vs vehicle is over 100 µM.
For `O=S(=O)(O)CCC(F)(F)C(F)(F)C(F)(F)C(F)(F)C(F)(F)C(F)(F)F` [6:2 Fluorotelomer sulfonic acid], the POD vs vehicle is over 100 µM.
As to `OCCC(F)(F)C(F)(F)C(F)(F)C(F)(F)C(F)(F)C(F)(F)C(F)(F)C(F)(F)F` [8:2 Fluorotelomer alcohol], the POD vs vehicle was over 100 µM.
For `O=S(=O)(O)CCC(F)(F)C(F)(F)C(F)(F)C(F)(F)C(F)(F)C(F)(F)C(F)(F)C(F)(F)F` [8:2 Fluorotelomer sulfonic acid], the POD vs vehicle is over 100 µM.
In the case of `O=C(O)C(F)(F)C(F)(F)C(F)(F)C(F)(F)C(F)(F)C(F)(F)C(F)(F)C(F)(F)Cl` [9-Chloro-perfluorononanoic_acid], the POD vs vehicle was over 100 µM.
With `O=P(O)(O)CCC(F)(F)C(F)(F)C(F)(F)C(F)(F)C(F)(F)C(F)(F)C(F)(F)C(F)(F)F` [((Perfluorooctyl)ethyl)phosphonic_acid], the POD vs vehicle was over 100 µM.
As to `O=C([O-])C(F)(F)C(F)(F)C(F)(F)C(F)(F)C(F)(F)C(F)(F)C(F)(F)F.[NH4+]` [Ammonium_perfluorooctanoate], the POD vs vehicle was over 100 µM.
With `OCC(F)(F)C(F)(F)C(F)(F)C(F)(F)C(F)(F)C(F)F` [Dodecafluoroheptanol], the POD vs vehicle is over 100 µM.
Regarding `OCC(F)(F)OC(F)(F)C(F)(F)OC(F)(F)C(F)(F)OC(F)(F)F` [Fluorinated_triethylene_glycol_monomethyl_ether], the POD vs vehicle is over 100 µM.
Take `OCC(F)(F)C(F)(F)C(F)(F)F` [Heptafluorobutanol]: the POD vs vehicle is over 100 µM.
Regarding `OCC(F)(F)C(F)(F)C(F)(F)CO` [Hexafluoroamylene_glycol], the POD vs vehicle is over 100 µM.
Turning to `COC(=O)C(F)(F)C(F)(F)OC(F)(C(F)(F)F)C(F)(F)OC(F)=C(F)F` (configuration not stated) [Methyl_perfluoro(3-(1-ethenyloxypropan-2-yloxy)propanoate)], the POD vs vehicle was over 100 µM.
In the case of `NC(=O)C(F)(F)C(F)(F)C(F)(F)C(F)(F)F` [Nonafluoropentanamide], the POD vs vehicle was over 100 µM.
Turning to `NC(=O)C(F)(F)C(F)(F)C(F)(F)C(F)(F)C(N)=O` [Octafluoroadipamide], the POD vs vehicle was over 100 µM.
Consider `O=C(O)C(F)(F)C(F)(F)C(F)(F)C(F)(F)C(=O)O` [Octafluoroadipic_acid], for which the POD vs vehicle is over 100 µM.
Same read-out and setting: the same measure for `O=C(O)C(F)(F)C(F)(F)C(F)(F)OC(F)(F)F` [Perfluoro(4-methoxybutanoic)_acid]: over 100 µM; for `O=C(O)C(F)(F)OC(F)(F)C(F)(F)OC(F)(F)C(F)(F)OC(F)(F)C(F)(F)C(F)(F)C(F)(F)F` [Perfluoro-3,6,9-trioxatridecanoic_acid]: over 100 µM; for `O=C(O)C(F)(F)OC(F)(F)C(F)(F)OC(F)(F)F` [Perfluoro-3,6-dioxaheptanoic_acid]: over 100 µM.
`O=C(O)C(F)(F)OC(F)(F)C(F)(F)OC(F)(F)C(=O)O` [Perfluoro-3,6-dioxaoctane-1,8-dioic_acid]: the POD vs vehicle was over 100 µM.

Another assay has as its system 1118 (donor line of iPSC-derived cardiomyocytes). The description is as above. The conditions noted are these: exposure time: 90 min. Summed up:
as §1
Regarding `OCCC(F)(F)C(F)(F)C(F)(F)C(F)(F)C(F)(F)C(F)(F)F` [6:2 Fluorotelomer alcohol], the POD vs vehicle was over 100 µM.
Turning to `O=S(=O)(O)CCC(F)(F)C(F)(F)C(F)(F)C(F)(F)C(F)(F)C(F)(F)F` [6:2 Fluorotelomer sulfonic acid], the POD vs vehicle is over 100 µM.
As to `OCCC(F)(F)C(F)(F)C(F)(F)C(F)(F)C(F)(F)C(F)(F)C(F)(F)C(F)(F)F` [8:2 Fluorotelomer alcohol], the POD vs vehicle was over 100 µM.
Still for that read-out and setting: with `O=S(=O)(O)CCC(F)(F)C(F)(F)C(F)(F)C(F)(F)C(F)(F)C(F)(F)C(F)(F)C(F)(F)F` [8:2 Fluorotelomer sulfonic acid] the figure was over 100 µM; with `O=C(O)C(F)(F)C(F)(F)C(F)(F)C(F)(F)C(F)(F)C(F)(F)C(F)(F)C(F)(F)Cl` [9-Chloro-perfluorononanoic_acid], over 100 µM.
For the molecule `O=P(O)(O)CCC(F)(F)C(F)(F)C(F)(F)C(F)(F)C(F)(F)C(F)(F)C(F)(F)C(F)(F)F` [((Perfluorooctyl)ethyl)phosphonic_acid], the POD vs vehicle is over 100 µM.
As for `O=C([O-])C(F)(F)C(F)(F)C(F)(F)C(F)(F)C(F)(F)C(F)(F)C(F)(F)F.[NH4+]` [Ammonium_perfluorooctanoate], the POD vs vehicle was over 100 µM.
On to `OCC(F)(F)C(F)(F)C(F)(F)C(F)(F)C(F)(F)C(F)F` [Dodecafluoroheptanol], for which the POD vs vehicle was over 100 µM.
`OCC(F)(F)OC(F)(F)C(F)(F)OC(F)(F)C(F)(F)OC(F)(F)F` [Fluorinated_triethylene_glycol_monomethyl_ether]: the POD vs vehicle was over 100 µM.
